Calls of active or inactive are those of the source.

Test [1] addresses Protein-tyrosine kinase 6 (Homo sapiens, UniProt Q13882).
The target in test [2] is MAP kinase-activated protein kinase 2 (Homo sapiens, UniProt P49137).
In test [3] the target is T1, Receptor-type tyrosine-protein kinase FLT3 (Homo sapiens, UniProt P36888).
T1 sequence (P36888 whole entry): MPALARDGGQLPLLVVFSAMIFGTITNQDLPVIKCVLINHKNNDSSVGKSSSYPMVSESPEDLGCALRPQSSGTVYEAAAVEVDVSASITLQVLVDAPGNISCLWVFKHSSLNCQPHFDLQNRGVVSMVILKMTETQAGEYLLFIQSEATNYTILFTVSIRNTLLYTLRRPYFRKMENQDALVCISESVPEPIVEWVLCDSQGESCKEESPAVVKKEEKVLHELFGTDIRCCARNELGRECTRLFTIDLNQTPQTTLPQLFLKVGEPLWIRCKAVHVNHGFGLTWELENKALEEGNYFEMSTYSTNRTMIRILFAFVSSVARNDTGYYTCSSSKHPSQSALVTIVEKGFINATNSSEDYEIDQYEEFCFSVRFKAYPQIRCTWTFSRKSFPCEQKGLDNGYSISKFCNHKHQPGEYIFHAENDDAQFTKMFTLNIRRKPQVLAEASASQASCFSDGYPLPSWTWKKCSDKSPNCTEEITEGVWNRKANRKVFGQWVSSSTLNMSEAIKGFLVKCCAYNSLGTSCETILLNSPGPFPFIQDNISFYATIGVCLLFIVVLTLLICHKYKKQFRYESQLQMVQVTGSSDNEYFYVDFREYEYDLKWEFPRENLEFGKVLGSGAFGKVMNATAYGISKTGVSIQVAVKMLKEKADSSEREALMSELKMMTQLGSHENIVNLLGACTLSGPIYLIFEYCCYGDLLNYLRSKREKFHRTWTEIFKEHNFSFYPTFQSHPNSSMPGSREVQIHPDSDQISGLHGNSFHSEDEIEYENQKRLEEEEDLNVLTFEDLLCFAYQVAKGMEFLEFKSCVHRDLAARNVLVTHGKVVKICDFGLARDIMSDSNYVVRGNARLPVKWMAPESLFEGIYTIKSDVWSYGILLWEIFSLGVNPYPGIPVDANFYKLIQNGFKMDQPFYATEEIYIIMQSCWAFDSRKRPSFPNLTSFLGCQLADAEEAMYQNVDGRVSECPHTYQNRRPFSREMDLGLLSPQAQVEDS

The target of test [4] is Chromodomain-helicase-DNA-binding protein 4 (Homo sapiens, UniProt Q14839).
Chromodomain-helicase-DNA-binding protein 4, sequence (Q14839 whole entry): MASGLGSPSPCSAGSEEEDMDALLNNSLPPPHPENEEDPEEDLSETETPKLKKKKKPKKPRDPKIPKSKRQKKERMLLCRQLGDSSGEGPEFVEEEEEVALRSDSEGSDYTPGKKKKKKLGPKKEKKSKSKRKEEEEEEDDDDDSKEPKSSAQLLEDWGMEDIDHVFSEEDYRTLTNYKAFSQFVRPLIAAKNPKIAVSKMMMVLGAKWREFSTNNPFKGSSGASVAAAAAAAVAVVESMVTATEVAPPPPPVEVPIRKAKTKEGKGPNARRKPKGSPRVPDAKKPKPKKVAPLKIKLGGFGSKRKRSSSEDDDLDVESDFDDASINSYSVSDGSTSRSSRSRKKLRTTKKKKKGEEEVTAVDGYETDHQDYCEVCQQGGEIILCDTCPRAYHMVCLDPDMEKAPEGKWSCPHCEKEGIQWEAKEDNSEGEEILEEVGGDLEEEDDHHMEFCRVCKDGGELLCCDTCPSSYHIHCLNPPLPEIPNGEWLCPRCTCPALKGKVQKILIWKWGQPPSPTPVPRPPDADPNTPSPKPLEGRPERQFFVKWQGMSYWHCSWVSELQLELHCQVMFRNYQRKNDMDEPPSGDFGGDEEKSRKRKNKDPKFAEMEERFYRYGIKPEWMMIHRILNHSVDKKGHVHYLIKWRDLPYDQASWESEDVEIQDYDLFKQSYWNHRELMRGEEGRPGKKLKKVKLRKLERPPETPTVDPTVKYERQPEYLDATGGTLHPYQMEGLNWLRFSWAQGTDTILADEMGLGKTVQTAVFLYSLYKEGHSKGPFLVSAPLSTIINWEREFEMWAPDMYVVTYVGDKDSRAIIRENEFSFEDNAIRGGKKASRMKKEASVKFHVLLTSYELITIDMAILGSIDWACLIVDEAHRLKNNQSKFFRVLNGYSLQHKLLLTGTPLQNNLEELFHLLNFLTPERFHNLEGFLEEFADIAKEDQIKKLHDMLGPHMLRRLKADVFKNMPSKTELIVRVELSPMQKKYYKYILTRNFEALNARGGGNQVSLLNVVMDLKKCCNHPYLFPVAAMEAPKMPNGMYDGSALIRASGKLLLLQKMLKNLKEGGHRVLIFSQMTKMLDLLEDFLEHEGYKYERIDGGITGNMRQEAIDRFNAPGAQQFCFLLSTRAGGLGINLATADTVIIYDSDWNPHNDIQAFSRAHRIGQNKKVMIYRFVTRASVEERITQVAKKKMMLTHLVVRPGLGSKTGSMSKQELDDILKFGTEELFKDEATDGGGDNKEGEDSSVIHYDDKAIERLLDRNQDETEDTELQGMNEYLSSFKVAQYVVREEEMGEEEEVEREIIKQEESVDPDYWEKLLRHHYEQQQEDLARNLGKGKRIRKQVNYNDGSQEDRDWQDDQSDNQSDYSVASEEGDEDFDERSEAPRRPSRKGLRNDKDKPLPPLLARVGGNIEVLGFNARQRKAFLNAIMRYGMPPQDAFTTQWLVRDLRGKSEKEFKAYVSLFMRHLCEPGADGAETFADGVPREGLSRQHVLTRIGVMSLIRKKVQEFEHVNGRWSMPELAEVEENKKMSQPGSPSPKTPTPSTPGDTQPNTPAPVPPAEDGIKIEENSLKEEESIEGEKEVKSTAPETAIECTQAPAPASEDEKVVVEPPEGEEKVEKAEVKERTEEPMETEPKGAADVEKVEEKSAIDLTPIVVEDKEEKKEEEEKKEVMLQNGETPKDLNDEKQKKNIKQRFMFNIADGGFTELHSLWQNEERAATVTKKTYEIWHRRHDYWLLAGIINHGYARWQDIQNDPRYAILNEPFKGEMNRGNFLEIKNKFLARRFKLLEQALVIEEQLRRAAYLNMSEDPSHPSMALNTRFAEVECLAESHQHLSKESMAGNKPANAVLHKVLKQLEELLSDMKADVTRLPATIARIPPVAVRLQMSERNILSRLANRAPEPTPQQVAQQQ
Test [5] deals with Elongation factor Tu, mitochondrial (Homo sapiens, UniProt P49411).
In test [6] the target is T2, Probable ATP-dependent RNA helicase DDX6 (Homo sapiens, UniProt P26196).
T2 sequence (P26196 whole entry): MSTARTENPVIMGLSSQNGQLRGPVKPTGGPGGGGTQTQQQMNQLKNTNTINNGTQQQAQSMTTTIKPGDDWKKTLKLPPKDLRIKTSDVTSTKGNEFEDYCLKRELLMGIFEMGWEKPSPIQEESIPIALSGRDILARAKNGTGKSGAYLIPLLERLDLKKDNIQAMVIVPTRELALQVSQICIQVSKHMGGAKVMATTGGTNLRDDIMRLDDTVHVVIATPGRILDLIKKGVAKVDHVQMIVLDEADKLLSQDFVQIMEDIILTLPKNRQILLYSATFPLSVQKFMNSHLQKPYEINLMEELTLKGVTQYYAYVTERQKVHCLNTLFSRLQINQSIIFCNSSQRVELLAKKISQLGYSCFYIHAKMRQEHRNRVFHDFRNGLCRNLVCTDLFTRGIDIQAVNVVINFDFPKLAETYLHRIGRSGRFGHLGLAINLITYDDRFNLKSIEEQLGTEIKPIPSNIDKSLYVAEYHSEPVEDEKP

Test [7] concerns the target Interleukin-1 receptor-associated kinase 1 (Homo sapiens, UniProt P51617).
Test [8] deals with T3, Serine/threonine-protein kinase TAO1 (Homo sapiens, UniProt Q7L7X3).
T3 sequence (Q7L7X3 whole entry): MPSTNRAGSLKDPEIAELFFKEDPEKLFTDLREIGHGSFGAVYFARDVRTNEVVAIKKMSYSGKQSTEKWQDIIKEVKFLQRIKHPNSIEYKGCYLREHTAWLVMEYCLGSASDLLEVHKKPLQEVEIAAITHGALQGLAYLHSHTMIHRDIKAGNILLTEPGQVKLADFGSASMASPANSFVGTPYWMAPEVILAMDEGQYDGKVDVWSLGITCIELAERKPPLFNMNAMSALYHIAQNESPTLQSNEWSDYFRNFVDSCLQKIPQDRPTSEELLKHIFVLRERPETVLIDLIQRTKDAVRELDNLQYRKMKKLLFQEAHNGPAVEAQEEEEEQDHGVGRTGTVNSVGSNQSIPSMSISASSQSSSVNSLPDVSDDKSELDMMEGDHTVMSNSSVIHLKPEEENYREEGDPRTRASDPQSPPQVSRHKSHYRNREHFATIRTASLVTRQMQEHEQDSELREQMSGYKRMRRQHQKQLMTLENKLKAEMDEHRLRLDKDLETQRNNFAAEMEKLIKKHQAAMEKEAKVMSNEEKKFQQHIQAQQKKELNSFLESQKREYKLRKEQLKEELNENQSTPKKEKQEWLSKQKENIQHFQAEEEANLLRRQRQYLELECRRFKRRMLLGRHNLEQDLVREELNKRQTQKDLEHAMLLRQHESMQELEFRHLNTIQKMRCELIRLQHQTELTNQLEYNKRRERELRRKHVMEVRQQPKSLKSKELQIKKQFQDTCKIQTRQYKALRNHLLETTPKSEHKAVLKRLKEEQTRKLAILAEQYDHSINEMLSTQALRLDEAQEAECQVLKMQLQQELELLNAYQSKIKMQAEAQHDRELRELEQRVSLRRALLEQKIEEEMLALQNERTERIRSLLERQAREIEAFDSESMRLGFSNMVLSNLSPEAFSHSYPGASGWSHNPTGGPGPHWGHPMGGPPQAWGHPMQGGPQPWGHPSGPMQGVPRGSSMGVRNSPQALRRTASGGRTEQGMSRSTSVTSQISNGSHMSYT
Note: in the data inactive means no Kd found up to 30 µM.

Interleukin-1 receptor-associated kinase 1, sequence (P51617 whole entry): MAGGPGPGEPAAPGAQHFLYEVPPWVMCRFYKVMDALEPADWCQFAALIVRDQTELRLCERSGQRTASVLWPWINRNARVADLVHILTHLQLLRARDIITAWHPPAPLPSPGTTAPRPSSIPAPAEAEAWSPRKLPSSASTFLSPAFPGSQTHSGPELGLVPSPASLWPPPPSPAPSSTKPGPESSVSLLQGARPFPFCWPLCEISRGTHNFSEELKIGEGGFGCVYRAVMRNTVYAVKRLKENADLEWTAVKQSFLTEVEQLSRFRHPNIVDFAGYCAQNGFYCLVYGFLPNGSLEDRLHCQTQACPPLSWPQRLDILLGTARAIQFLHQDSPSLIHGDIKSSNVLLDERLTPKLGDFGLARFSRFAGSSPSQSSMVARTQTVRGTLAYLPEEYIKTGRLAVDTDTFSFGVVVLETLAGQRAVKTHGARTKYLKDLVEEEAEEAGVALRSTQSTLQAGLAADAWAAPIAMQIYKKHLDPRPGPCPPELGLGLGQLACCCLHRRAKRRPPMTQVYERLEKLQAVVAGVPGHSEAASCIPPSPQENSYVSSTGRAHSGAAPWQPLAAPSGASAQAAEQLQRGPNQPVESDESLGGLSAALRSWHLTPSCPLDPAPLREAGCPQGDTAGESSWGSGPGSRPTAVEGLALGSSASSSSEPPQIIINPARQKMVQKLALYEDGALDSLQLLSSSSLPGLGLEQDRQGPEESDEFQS
MAP kinase-activated protein kinase 2, sequence (P49137 whole entry): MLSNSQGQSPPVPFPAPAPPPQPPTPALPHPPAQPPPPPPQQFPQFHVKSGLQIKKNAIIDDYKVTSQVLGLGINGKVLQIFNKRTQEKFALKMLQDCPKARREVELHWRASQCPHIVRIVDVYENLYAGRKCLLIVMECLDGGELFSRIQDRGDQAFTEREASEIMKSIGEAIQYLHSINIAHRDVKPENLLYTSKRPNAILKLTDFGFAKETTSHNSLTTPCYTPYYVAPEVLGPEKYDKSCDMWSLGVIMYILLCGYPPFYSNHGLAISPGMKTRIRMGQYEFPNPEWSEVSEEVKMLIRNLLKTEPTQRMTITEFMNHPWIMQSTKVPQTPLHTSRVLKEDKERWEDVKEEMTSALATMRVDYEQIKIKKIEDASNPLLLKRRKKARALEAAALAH
Protein-tyrosine kinase 6, sequence (Q13882 whole entry): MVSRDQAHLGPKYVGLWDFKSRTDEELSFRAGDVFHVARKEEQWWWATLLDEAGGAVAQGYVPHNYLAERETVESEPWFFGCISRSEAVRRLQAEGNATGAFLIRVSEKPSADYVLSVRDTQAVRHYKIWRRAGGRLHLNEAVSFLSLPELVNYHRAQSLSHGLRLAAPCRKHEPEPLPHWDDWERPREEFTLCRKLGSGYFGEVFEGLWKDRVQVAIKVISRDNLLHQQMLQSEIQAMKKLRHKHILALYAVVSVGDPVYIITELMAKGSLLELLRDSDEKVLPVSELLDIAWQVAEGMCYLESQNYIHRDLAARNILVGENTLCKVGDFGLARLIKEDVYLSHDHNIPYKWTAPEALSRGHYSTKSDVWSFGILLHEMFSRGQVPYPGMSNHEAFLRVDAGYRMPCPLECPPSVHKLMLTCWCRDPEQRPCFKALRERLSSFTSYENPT

Consider `CCn1c(=O)c(-c2cc[nH]n2)cc2c(C)nc(N)nc21` [VOXTALISIB], for which the Kd in test [1], in test [2], in test [3], in test [4], in test [5] and in test [6] was > 30 µM (inactive) in each case. Moreover, the Kd in test [7] is > 30 µM (inactive).
Regarding `OCCn1cc(-c2cnc3nnn(Cc4ccc5ncccc5c4)c3n2)cn1` [PF-04217903], the Kd in test [1], in test [2], in test [4], in test [5], in test [6] and in test [7] was > 30 µM (inactive) each time.
As for `CCn1c(-c2nonc2N)nc2c(C#CC(C)(C)O)ncc(OC[C@H]3CCCNC3)c21` [GSK-690693], the Kd in test [4], in test [5] and in test [6] was > 30 µM (inactive) throughout.
For `Cc1cc(Nc2cc(N3CCN(C)CC3)nc(/C=C/c3ccccc3)n2)n[nH]1` [ENMD-2076], the Kd in test [4], in test [5] and in test [6] was > 30 µM (inactive) each time.
For `C[C@@H](Nc1cc(F)cc(F)c1)c1cc(C(=O)N(C)C)cc2c(=O)cc(N3CCOCC3)oc12` [AZD-8186], the Kd in test [8], in test [1], in test [2], in test [3], in test [5] and in test [7] was > 30 µM (inactive) in each case.
For `Nc1nc(N)c2nc(-c3cccc(O)c3)c(-c3cccc(O)c3)nc2n1` [TG100-115], the Kd in test [1], in test [4], in test [5] and in test [6] was > 30 µM (inactive) each time.
As to `CN1CCN(c2ccc3nc(-c4c(N)c5c(F)cccc5[nH]c4=O)[nH]c3c2)CC1` [DOVITINIB], the Kd in test [4], in test [5] and in test [6] was > 30 µM (inactive) in each case.
Regarding `O=C(Nc1cccc(Cl)c1)Nc1ncc(CCNc2ncnc3ccsc23)s1` [SNS-314], the Kd in test [4], in test [5] and in test [6] was > 30 µM (inactive) throughout.
As to `C1=C/COCc2cc(ccc2OCCN2CCCC2)Nc2nccc(n2)-c2cccc(c2)COC/1` [PACRITINIB], the Kd was 2.19 µM (active) in test [8]; > 30 µM (inactive) in test [1]; > 30 µM (inactive) in test [2]; > 30 µM (inactive) in test [4]; > 30 µM (inactive) in test [5]; > 30 µM (inactive) in test [6]. Moreover, the equilibrium dissociation constant (Kd) in test [7] is 0.258 µM (active).
With `CCc1cnn2c(NCc3ccc[n+]([O-])c3)cc(N3CCCC[C@H]3CCO)nc12` [DINACICLIB], the Kd in test [1] is > 30 µM (inactive); in test [2], > 30 µM (inactive); in test [3] it was > 30 µM (inactive); in test [4] it was 0.003 µM; in test [5] it was > 30 µM (inactive); in test [6] it was > 30 µM (inactive). The Kd in test [7] was > 30 µM (inactive).
Consider `COc1cc2nccc(Oc3ccc(NC(=O)NC4CC4)c(Cl)c3)c2cc1C(N)=O` [LENVATINIB], for which the Kd was > 30 µM (inactive) in test [8]; 0.173 µM in test [1]; 0.063 µM (active) in test [2]; > 30 µM (inactive) in test [3]; > 30 µM (inactive) in test [4]; > 30 µM (inactive) in test [5]. Besides, in test [6], the Kd was > 30 µM (inactive).
`CNC(=O)c1ccc(C)c(-n2c(C)cc(OCc3ccc(F)cc3F)c(Br)c2=O)c1` [PH-797804]: the Kd in test [8], in test [1], in test [3], in test [5] and in test [7] was > 30 µM (inactive) in each case.
Consider `COc1cc2nccc(Oc3ccc(NC(=O)Nc4cc(C)on4)c(Cl)c3)c2cc1OC` [TIVOZANIB], for which the Kd in test [8] is > 30 µM (inactive); in test [1], 0.787 µM (active); in test [2], > 30 µM (inactive); in test [4], > 30 µM (inactive); in test [5] it was > 30 µM (inactive); in test [6], > 30 µM (inactive). Also, the Kd in test [7] was > 30 µM (inactive).
For `C[C@@H](c1ccc2nccn2c1)n1nnc2ncc(-c3cnn(C)c3)nc21` [SAVOLITINIB], the Kd in test [8], in test [1], in test [3], in test [5], in test [6] and in test [7] was > 30 µM (inactive) throughout.
As for `Cc1nc(N)sc1-c1ccnc(Nc2ccc(N3CCOCC3)cc2)n1` [CYC-116], the Kd in test [4], in test [5] and in test [6] was > 30 µM (inactive) each time.
`CNC(=O)c1cc(Oc2ccc(NC(=O)Nc3ccc(Cl)c(C(F)(F)F)c3)c(F)c2)ccn1` [REGORAFENIB]: the Kd is > 30 µM (inactive) in test [8]; > 30 µM (inactive) in test [1]; 0.682 µM (active) in test [2]; > 30 µM (inactive) in test [4]; > 30 µM (inactive) in test [5]; > 30 µM (inactive) in test [6]. Further, in test [7], the Kd is > 30 µM (inactive).
As to `COCCNCc1ccc(-c2cc3nccc(Oc4ccc(NC(=S)NC(=O)Cc5ccc(F)cc5)cc4F)c3s2)nc1` [GLESATINIB], the Kd in test [8] is > 30 µM (inactive); in test [2], > 30 µM (inactive); in test [3], 0.179 µM (active); in test [4] it was > 30 µM (inactive); in test [5], > 30 µM (inactive); in test [6], > 30 µM (inactive). For the same compound, the Kd in test [7] is > 30 µM (inactive).
For the compound `Cc1cn(-c2cc(NC(=O)c3ccc(C)c(Nc4nccc(-c5cccnc5)n4)c3)cc(C(F)(F)F)c2)cn1` [NILOTINIB], the Kd in test [4], in test [5] and in test [6] was > 30 µM (inactive) each time.

By Kd is commonly meant the equilibrium constant for the complex coming apart.

(Values after ChEMBL document CHEMBL3991601, “The target landscape of clinical kinase drugs” (Science, 2017).)
